Measured values reported in paper PMC9234961 (Journal of Medicinal Chemistry, 2022).
Like-named read-outs stand apart in the source and are kept apart here.

Columns and labels:
[1] = target: kinases (468) (Homo sapiens, UniProt O14730); settings: kinase RIOK3 (Entrez RIOK3); compound concentration 1000 nM
[2] = target: kinases (468) (Homo sapiens, UniProt O75385); settings: kinase ULK1 (Entrez ULK1); compound concentration 1000 nM
[3] = target: kinases (468) (Homo sapiens, UniProt O94921); settings: PFTK1 (CDK14); 1000 nM
[4] = target: kinases (468) (Homo sapiens, UniProt O95835); settings: LATS1; 1000 nM
[5] = target: kinases (468) (Homo sapiens, UniProt P00519, Q252H); settings: 1000 nM
[6] = target: kinases (468) (Homo sapiens, UniProt P0C264); settings: kinase SgK110 (Entrez SgK110); compound concentration 1000 nM
[7] = target: kinases (468) (Homo sapiens, UniProt P14616); settings: INSRR; 1000 nM
[8] = target: kinases (468) (Homo sapiens, UniProt P19525); settings: PRKR (EIF2AK2); 1000 nM
[9] = target: kinases (468) (Homo sapiens, UniProt P21802); settings: FGFR2; 1000 nM
[10] = target: kinases (468) (Homo sapiens, UniProt P27037); settings: ACVR2A; 1000 nM
[11] = target: kinases (468) (Homo sapiens, UniProt P29320); settings: EPHA3; 1000 nM
[12] = target: kinases (468) (Homo sapiens, UniProt P36888, D835Y); settings: FLT3(D835Y); 1000 nM
[13] = target: kinases (468) (Homo sapiens, UniProt P42336, E545A); settings: PIK3CA(E545A); 1000 nM
[14] = target: kinases (468) (Homo sapiens, UniProt P42336, E545K); settings: PIK3CA(E545K); 1000 nM
[15] = target: kinases (468) (Homo sapiens, UniProt P42336, H1047L); settings: PIK3CA(H1047L); 1000 nM
[16] = target: kinases (468) (Homo sapiens, UniProt P54756); settings: EPHA5; 1000 nM
[17] = target: kinases (468) (Homo sapiens, UniProt Q13177); settings: PAK2; 1000 nM
[18] = target: kinases (468) (Homo sapiens, UniProt Q13237); settings: PRKG2; 1000 nM
[19] = target: kinases (468) (Homo sapiens, UniProt Q13557); settings: CAMK2D; 1000 nM
[20] = target: kinases (468) (Homo sapiens, UniProt Q15746); settings: MYLK; 1000 nM
[21] = target: kinases (468) (Homo sapiens, UniProt Q15831); settings: LKB1 (STK11); 1000 nM
[22] = target: kinases (468) (Homo sapiens, UniProt Q5VT25); settings: MRCKA (CDC42BPA); 1000 nM
[23] = target: kinases (468) (Homo sapiens, UniProt Q6P2M8); settings: CAMK1B (PNCK); 1000 nM
[24] = target: kinases (468) (Homo sapiens, UniProt Q86Y07); settings: kinase VRK2 (Entrez VRK2); compound concentration 1000 nM
[25] = target: kinases (468) (Homo sapiens, UniProt Q8TD19); settings: NEK9; 1000 nM
[26] = target: kinases (468) (Homo sapiens, UniProt Q96BR1); settings: kinase SGK3 (Entrez SGK3); compound concentration 1000 nM
[27] = target: kinases (468) (Homo sapiens, UniProt Q96J92); settings: kinase WNK4 (Entrez WNK4); compound concentration 1000 nM
[28] = target: kinases (468) (Homo sapiens, UniProt Q96PY6); settings: NEK1; 1000 nM
[29] = target: kinases (468) (Homo sapiens, UniProt Q9BRS2); settings: kinase RIOK1 (Entrez RIOK1); compound concentration 1000 nM
[30] = target: kinases (468) (Homo sapiens, UniProt Q9BXA7); settings: kinase TSSK1B (Entrez TSSK1B); compound concentration 1000 nM
[31] = target: kinases (468) (Homo sapiens, UniProt Q9UM73); settings: ALK; 1000 nM
[32] = target: kinases (468) (Homo sapiens, UniProt Q9UQB9); settings: AURKC; 1000 nM
[33] = target: kinases (468) (Homo sapiens, UniProt Q9Y6E0); settings: MST3 (STK24); 1000 nM
[34] = target: kinases (468) (Homo sapiens, UniProt Q9Y6M4); settings: CSNK1G3; 1000 nM
Chain of kinases (468) (Homo sapiens, UniProt Q9Y6M4) (Q9Y6M4 whole entry): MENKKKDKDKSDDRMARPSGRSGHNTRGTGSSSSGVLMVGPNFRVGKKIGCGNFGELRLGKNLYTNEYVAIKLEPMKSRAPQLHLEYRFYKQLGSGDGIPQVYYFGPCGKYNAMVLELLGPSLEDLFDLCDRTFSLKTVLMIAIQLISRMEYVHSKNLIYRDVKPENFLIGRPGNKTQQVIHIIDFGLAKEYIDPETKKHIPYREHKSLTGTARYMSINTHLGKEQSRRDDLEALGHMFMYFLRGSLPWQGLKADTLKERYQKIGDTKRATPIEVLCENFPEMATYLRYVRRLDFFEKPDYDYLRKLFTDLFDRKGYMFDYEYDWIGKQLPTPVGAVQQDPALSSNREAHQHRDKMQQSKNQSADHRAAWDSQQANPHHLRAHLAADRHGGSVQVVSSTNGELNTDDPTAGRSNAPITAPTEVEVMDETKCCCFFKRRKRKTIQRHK

Chain of kinases (468) (Homo sapiens, UniProt Q15746) (Q15746 whole entry): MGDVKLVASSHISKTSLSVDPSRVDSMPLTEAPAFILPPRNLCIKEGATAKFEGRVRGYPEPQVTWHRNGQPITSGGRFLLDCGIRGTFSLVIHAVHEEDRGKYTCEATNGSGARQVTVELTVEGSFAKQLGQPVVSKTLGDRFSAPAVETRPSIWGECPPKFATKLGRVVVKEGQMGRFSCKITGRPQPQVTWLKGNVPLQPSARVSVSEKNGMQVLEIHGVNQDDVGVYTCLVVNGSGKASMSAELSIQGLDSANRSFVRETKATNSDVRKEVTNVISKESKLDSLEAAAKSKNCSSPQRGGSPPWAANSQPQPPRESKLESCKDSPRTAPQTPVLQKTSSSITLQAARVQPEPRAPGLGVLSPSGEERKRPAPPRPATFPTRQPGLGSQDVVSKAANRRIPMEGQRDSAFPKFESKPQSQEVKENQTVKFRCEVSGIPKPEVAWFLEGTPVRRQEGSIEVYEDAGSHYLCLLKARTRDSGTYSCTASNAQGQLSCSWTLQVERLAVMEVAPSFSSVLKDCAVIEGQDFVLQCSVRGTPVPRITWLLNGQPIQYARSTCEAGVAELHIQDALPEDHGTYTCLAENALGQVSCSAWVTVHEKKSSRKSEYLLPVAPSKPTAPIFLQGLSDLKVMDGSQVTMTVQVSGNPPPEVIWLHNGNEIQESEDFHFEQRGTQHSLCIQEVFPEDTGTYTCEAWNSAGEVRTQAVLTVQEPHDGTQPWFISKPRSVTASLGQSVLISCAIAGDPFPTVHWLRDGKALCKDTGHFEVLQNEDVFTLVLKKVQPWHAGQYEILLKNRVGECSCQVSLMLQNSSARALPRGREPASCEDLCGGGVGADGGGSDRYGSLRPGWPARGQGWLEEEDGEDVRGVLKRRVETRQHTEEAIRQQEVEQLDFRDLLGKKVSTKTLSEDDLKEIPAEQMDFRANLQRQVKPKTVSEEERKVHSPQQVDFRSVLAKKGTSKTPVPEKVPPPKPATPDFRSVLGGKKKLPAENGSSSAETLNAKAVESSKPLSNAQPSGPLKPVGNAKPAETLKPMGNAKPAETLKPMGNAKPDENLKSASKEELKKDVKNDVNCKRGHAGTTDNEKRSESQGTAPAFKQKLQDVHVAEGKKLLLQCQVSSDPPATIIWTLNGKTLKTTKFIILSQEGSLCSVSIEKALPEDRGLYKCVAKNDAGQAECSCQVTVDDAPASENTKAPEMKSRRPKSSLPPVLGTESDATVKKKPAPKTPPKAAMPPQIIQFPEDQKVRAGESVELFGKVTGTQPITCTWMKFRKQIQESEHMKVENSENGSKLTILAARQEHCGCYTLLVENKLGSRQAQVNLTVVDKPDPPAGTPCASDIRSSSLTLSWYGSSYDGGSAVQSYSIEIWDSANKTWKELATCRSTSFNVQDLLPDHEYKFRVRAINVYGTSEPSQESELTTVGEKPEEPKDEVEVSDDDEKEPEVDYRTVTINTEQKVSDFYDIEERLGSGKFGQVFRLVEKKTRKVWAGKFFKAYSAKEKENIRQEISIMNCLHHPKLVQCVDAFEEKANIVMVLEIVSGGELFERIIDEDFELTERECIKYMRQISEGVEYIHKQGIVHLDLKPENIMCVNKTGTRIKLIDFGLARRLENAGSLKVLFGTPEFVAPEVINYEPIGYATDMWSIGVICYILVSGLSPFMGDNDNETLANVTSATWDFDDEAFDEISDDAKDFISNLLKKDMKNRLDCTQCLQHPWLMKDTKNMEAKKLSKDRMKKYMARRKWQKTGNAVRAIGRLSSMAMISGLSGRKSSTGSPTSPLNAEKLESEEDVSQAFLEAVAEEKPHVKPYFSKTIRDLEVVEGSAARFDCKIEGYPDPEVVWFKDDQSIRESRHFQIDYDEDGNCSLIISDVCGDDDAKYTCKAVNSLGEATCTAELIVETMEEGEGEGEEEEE
Chain of kinases (468) (Homo sapiens, UniProt P19525) (P19525 whole entry): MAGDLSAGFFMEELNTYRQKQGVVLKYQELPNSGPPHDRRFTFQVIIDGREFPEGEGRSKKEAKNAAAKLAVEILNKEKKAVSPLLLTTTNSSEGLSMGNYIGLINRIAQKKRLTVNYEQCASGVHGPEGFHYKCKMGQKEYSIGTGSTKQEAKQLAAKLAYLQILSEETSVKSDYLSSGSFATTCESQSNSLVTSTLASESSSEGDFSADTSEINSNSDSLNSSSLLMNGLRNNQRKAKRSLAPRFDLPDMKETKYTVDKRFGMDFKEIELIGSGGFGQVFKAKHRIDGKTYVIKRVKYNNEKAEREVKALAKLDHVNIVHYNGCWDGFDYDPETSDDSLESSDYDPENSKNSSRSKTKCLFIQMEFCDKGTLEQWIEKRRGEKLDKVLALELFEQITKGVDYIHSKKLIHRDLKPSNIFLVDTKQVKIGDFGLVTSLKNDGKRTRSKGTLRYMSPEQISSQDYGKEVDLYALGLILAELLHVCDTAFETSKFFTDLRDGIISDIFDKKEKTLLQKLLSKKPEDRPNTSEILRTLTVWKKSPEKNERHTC
Chain of kinases (468) (Homo sapiens, UniProt Q96BR1) (Q96BR1 whole entry): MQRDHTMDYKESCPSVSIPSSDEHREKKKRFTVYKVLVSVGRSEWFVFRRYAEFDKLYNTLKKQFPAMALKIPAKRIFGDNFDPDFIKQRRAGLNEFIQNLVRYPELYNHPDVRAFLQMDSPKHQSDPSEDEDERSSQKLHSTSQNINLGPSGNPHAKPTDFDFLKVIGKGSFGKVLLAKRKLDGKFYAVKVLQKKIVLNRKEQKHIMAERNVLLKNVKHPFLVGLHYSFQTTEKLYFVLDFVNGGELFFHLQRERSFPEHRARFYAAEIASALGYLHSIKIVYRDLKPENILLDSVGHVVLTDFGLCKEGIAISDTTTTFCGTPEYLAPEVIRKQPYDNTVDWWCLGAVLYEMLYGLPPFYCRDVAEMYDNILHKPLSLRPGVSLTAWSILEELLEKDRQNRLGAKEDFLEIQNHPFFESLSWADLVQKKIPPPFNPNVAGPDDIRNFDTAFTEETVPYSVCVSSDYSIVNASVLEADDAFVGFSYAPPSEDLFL
Chain of kinases (468) (Homo sapiens, UniProt Q96PY6) (Q96PY6 whole entry): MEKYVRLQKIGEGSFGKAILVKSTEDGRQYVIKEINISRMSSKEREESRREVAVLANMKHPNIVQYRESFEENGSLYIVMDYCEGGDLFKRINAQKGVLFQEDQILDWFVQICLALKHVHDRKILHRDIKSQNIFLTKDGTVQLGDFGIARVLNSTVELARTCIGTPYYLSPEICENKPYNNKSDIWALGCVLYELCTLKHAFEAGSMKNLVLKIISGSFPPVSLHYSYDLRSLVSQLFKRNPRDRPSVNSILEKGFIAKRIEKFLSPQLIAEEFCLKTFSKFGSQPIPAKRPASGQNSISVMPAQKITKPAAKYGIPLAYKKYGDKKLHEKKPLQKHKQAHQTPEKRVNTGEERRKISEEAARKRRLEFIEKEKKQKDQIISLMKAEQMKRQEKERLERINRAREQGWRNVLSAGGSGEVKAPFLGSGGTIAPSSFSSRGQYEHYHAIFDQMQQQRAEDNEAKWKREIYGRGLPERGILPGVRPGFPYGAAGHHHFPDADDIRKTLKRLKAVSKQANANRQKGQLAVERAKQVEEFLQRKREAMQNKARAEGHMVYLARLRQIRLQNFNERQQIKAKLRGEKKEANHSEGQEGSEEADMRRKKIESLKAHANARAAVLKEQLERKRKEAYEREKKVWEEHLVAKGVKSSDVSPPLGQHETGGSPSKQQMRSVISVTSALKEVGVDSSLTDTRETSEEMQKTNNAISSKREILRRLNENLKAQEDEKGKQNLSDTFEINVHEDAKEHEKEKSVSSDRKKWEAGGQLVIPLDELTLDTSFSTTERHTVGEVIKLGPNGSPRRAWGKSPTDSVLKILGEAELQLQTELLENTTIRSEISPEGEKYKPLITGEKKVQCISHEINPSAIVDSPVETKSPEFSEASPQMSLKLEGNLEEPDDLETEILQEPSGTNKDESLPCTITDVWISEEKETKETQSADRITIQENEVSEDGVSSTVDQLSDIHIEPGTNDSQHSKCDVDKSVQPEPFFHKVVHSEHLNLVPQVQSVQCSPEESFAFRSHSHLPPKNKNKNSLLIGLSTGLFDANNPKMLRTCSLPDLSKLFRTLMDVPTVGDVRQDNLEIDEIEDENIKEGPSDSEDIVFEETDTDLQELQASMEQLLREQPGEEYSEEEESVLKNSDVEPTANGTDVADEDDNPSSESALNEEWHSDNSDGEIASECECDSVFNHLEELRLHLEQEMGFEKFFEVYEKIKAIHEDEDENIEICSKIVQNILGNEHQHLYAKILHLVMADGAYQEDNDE
Chain of kinases (468) (Homo sapiens, UniProt P0C264) (P0C264 whole entry): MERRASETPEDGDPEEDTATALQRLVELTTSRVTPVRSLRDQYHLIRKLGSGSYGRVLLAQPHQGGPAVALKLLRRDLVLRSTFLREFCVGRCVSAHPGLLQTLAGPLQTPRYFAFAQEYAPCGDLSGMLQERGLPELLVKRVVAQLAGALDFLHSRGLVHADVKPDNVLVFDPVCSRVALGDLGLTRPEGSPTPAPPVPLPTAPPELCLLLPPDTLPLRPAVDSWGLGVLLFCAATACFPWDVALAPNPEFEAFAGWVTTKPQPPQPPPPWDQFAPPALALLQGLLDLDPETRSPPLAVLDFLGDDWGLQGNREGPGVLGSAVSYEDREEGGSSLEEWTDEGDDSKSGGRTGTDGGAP

For C[C@H]1C[C@@H](O)CN(c2ncc(Cl)c(Nc3ccc4c(c3)c3c(c(=O)n4C)OCC(F)(F)[C@H](C4CC4)N3)n2)C1 [CCT373566_9A], the “Percent Control” value [1] was 85%, the “Percent Control” value [2] was 93% and the “Percent Control” value [3] was 95%. The “Percent Control” value [4] was 94%, the “Percent Control” value ([5]; ABL1(Q252H)-nonphosphorylated) was 94% and the “Percent Control” value ([5]; ABL1(Q252H)-phosphorylated) was 98%. The “Percent Control” value [6] was 95%, the “Percent Control” value [7] was 100% and the “Percent Control” value [8] was 95%. The “Percent Control” value [9] was 100%, the “Percent Control” value [10] was 82% and the “Percent Control” value [11] was 85%. For the same molecule, the “Percent Control” value [12] was 90%, the “Percent Control” value [13] was 100% and the “Percent Control” value [14] was 95%. The “Percent Control” value [15] was 84%, the “Percent Control” value [16] was 98% and the “Percent Control” value [17] was 100%. The “Percent Control” value [18] was 100%, the “Percent Control” value [19] was 88% and the “Percent Control” value [20] was 91%. For the same molecule, the “Percent Control” value [21] was 65%, the “Percent Control” value [22] was 99% and the “Percent Control” value [23] was 69%. The “Percent Control” value [24] was 89%, the “Percent Control” value [25] was 95% and the “Percent Control” value [26] was 99%. For the same molecule, the “Percent Control” value [27] was 42%, the “Percent Control” value [28] was 98% and the “Percent Control” value [29] was 78%. The “Percent Control” value [30] was 100%, the “Percent Control” value [31] was 98% and the “Percent Control” value [32] was 100%. The “Percent Control” value [33] was 80% and the “Percent Control” value [34] was 100%.
